Measurements published in ChEMBL document CHEMBL3352351 (Bioorg Med Chem, 2014).

Legend:
HT-29 = test: Cytotoxicity against human HT-29 cells after 72 hrs by MTT assay; details: HT-29, 72 h
[1] = Cytotoxicity against human MKN45 cells after 72 hrs by MTT assay; details: MKN-45, 72 h
[2] = molecular target: Hepatocyte growth factor receptor (Homo sapiens, UniProt P08581); test: Inhibition of c-Met (unknown origin) using poly (Glu, Tyr) 4:1 substrate incubated for 30 mins by HTRF assay
[3] = Cytotoxicity against human U87MG cells after 72 hrs by MTT assay; type: functional, cell-based, U-87MG ATCC; details: U-87 MG
[4] = Cytotoxicity against human H460 cells after 72 hrs by MTT assay; details: NCI-H460, 72 h
A549 = test: Cytotoxicity against human A549 cells after 72 hrs by MTT assay; details: A549, 72 h
[5] = molecular target: Mast/stem cell growth factor receptor Kit (Homo sapiens, UniProt P10721); test: Inhibition of c-Kit (unknown origin) using poly (Glu, Tyr) 4:1 substrate incubated for 30 mins by HTRF assay
[6] = molecular target: T1, Receptor-type tyrosine-protein kinase FLT3 (Homo sapiens, UniProt P36888); test: Inhibition of FLT3 (unknown origin) using poly (Glu, Tyr) 4:1 substrate incubated for 30 mins by HTRF assay
T1 sequence (P36888 whole entry): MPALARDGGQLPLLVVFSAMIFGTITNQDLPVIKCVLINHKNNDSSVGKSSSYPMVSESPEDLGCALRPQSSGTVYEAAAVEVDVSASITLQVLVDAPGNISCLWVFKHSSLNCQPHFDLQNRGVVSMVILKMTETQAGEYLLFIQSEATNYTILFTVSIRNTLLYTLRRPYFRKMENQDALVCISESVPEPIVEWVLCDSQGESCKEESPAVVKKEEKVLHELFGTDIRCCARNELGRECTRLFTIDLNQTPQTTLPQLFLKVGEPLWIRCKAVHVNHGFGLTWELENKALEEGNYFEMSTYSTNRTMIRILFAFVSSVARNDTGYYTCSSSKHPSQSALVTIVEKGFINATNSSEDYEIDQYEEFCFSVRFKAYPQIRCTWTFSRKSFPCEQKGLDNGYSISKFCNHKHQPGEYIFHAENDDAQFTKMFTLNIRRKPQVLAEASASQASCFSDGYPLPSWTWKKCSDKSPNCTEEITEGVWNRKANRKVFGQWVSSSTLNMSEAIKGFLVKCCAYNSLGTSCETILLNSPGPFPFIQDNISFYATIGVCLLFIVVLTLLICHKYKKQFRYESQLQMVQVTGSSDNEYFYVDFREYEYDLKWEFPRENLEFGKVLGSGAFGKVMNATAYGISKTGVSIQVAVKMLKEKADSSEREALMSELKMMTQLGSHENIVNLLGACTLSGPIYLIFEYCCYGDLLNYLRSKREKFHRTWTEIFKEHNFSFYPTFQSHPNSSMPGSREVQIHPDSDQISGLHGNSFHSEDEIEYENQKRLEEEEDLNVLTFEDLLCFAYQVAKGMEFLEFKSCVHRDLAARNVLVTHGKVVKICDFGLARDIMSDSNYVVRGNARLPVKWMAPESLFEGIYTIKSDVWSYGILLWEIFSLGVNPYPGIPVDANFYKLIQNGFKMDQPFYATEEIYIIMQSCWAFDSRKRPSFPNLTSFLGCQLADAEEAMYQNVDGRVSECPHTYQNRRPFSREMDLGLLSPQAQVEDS

[7] = molecular target: Vascular endothelial growth factor receptor 2 (Homo sapiens, UniProt P35968); test: Inhibition of KDR (unknown origin) using poly (Glu, Tyr) 4:1 substrate incubated for 30 mins by HTRF assay
Chain of Vascular endothelial growth factor receptor 2 (P35968 whole entry): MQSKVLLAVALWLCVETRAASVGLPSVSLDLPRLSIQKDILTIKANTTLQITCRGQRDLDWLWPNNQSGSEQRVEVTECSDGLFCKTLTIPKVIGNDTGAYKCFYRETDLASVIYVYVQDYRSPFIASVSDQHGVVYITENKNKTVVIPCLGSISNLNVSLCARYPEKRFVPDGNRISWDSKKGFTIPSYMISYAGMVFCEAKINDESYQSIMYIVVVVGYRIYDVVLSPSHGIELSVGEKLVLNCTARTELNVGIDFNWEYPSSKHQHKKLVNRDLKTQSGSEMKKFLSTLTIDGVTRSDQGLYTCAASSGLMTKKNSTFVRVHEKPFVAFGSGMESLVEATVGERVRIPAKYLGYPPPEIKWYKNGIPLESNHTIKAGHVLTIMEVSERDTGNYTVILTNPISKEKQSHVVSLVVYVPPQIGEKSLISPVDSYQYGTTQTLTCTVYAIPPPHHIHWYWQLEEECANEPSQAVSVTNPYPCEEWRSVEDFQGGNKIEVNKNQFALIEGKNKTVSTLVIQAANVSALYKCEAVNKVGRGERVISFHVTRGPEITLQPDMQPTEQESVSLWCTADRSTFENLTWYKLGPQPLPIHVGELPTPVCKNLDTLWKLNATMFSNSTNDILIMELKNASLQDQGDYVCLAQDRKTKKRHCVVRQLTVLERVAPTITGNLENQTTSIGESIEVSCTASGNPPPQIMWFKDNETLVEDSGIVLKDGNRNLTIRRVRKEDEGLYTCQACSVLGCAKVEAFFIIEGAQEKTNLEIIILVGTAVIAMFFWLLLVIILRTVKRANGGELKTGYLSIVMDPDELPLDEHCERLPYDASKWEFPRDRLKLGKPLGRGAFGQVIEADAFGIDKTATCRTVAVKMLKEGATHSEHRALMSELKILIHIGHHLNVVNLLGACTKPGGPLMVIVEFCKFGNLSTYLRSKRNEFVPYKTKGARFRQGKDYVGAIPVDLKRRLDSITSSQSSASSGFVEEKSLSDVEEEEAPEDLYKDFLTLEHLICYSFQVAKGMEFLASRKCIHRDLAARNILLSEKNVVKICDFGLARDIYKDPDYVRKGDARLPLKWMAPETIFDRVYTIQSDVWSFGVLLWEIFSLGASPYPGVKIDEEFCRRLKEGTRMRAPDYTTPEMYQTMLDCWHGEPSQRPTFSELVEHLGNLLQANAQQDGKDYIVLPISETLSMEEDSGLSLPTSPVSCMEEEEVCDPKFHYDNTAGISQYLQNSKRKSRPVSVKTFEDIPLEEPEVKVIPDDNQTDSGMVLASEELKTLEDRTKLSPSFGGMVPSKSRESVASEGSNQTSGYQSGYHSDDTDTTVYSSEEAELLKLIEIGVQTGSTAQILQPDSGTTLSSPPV

[8] = molecular target: Platelet-derived growth factor receptor beta (Homo sapiens, UniProt P09619); test: Inhibition of PDGFRbeta (unknown origin) using poly (Glu, Tyr) 4:1 substrate incubated for 30 mins by HTRF assay
Chain of Platelet-derived growth factor receptor beta (P09619 whole entry): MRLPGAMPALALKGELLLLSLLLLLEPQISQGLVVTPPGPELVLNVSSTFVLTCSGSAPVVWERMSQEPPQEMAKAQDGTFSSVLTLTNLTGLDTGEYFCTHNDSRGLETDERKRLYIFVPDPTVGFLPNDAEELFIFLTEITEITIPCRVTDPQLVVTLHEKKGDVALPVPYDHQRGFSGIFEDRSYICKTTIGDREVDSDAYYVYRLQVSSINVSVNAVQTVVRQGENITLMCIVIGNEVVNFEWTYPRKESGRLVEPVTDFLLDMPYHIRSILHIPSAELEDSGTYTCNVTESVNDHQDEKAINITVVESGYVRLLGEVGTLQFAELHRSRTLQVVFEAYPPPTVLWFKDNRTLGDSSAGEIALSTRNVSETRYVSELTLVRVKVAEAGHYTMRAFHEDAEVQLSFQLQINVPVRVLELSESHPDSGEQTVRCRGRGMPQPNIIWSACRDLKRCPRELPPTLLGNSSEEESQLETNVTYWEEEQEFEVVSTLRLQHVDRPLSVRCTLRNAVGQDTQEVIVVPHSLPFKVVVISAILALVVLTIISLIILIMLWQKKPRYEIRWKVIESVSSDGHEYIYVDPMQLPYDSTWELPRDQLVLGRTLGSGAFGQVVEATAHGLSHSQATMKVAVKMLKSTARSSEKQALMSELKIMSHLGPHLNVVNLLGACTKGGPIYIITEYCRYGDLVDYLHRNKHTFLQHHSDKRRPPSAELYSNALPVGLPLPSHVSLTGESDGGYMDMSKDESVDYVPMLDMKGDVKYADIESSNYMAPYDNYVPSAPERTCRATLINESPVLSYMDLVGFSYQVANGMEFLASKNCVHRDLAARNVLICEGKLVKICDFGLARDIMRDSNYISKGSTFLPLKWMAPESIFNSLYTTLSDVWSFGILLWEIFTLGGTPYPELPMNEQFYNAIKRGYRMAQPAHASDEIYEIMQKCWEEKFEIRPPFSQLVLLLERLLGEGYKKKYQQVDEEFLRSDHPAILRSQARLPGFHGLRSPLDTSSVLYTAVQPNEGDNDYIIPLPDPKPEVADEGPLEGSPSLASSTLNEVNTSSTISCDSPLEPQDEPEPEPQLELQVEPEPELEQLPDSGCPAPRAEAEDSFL

[9] = molecular target: Epidermal growth factor receptor (Homo sapiens, UniProt P00533); test: Inhibition of EGFR (unknown origin) using poly (Glu, Tyr) 4:1 substrate incubated for 30 mins by HTRF assay
Chain of Epidermal growth factor receptor (P00533 whole entry): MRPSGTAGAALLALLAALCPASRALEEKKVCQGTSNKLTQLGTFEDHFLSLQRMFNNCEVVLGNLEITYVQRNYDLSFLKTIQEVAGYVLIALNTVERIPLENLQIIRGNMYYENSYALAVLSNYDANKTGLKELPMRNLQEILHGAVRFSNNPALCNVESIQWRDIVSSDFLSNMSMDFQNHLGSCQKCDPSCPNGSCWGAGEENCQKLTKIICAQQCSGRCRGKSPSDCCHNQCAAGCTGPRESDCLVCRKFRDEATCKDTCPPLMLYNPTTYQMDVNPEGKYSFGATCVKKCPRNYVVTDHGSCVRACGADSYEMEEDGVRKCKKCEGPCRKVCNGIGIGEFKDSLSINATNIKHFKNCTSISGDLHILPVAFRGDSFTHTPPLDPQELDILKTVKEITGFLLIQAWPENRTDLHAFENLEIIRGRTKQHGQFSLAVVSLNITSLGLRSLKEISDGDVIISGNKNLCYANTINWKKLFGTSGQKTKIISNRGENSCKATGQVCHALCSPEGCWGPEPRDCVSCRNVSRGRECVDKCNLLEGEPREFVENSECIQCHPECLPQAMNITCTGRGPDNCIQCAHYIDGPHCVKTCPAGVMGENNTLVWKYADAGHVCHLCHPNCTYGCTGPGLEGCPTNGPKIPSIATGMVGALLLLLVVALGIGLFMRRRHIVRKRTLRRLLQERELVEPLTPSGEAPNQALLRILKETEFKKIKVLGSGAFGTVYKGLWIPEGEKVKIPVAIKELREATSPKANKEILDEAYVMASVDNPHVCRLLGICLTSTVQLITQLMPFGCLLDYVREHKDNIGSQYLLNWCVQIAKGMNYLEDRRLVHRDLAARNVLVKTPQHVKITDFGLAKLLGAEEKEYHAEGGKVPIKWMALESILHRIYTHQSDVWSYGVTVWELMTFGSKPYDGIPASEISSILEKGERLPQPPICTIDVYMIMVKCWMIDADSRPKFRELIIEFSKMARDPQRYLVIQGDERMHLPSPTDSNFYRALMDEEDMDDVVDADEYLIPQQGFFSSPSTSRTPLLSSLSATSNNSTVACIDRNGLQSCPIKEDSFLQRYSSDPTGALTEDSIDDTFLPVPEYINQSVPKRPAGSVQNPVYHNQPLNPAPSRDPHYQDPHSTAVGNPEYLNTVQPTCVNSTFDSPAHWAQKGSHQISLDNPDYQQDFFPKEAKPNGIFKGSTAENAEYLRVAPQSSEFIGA

Chain of Hepatocyte growth factor receptor (P08581 whole entry): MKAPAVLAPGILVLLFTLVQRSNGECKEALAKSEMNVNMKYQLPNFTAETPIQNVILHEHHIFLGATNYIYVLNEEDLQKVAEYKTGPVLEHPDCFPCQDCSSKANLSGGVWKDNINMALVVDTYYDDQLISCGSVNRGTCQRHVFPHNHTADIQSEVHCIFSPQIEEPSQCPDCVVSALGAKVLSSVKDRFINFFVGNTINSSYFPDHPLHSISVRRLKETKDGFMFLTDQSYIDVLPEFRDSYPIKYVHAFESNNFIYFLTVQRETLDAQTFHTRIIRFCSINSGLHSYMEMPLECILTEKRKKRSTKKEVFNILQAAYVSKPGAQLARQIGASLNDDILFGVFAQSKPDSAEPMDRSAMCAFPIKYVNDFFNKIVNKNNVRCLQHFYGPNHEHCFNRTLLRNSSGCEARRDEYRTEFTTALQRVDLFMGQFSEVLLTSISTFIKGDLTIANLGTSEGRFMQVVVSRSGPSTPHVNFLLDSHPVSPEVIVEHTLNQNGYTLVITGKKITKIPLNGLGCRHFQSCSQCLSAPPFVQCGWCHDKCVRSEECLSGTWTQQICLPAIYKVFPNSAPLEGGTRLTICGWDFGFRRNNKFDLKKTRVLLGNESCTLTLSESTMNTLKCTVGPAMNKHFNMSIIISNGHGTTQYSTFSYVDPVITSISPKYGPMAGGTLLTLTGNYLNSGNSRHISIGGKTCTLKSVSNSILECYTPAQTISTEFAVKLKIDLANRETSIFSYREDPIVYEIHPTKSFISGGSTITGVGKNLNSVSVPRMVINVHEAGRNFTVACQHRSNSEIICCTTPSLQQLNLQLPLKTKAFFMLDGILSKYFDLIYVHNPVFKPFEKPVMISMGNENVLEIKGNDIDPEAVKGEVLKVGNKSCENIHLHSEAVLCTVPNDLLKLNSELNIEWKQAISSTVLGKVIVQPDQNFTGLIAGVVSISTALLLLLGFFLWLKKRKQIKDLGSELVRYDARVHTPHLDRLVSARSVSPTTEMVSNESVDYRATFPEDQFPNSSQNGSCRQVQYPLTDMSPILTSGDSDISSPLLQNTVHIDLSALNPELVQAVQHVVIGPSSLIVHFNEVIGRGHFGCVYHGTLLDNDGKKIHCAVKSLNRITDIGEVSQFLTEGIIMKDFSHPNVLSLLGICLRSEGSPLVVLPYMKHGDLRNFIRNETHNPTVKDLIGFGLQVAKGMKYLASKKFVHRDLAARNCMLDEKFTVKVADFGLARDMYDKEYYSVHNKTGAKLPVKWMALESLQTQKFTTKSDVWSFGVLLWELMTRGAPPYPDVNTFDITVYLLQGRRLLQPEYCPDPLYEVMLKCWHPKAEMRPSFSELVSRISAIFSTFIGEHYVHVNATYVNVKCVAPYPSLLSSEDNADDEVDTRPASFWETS

| Compound | IC50 (HT-29) [nM] | IC50 [1] [nM] | IC50 [2] [nM] | IC50 [3] [nM] | IC50 [4] [nM] | IC50 (A549) [nM] | IC50 [5] [nM] | IC50 [6] [nM] | IC50 [7] [nM] | IC50 [8] [nM] | IC50 [9] [nM] |
| --- | --- | --- | --- | --- | --- | --- | --- | --- | --- | --- | --- |
| COc1cc2c(Oc3ccc(NC(=O)c4nnn(-c5ccccc5C(F)(F)F)c4C(F)(F)F)cc3F)ccnc2cc1OCCCN1CCCC1 | 210 | 60 | 3.68 | 1180 | 270 | 200 | – | – | – | – | – |
| COc1cc2c(Oc3ccc(NC(=O)c4nnn(-c5ccc(F)cc5)c4C(F)(F)F)cc3F)ccnc2cc1OCCCN1CCCC1 | 120 | 21 | 1.04 | 850 | 150 | 80 | 4.02 | 8.78 | 65.4 | 16.3 | > 10000 |
| COc1cc2c(Oc3ccc(NC(=O)c4nnn(-c5ccc(F)cc5)c4C(F)(F)F)cc3F)ccnc2cc1OCCCN1CCC(C)CC1 | 160 | 70 | – | 800 | – | 120 | – | – | – | – | – |
